These results are taken from PMC8149832, “A comparative study of synthetic winged peptides for absolute protein quantification” (Scientific Reports, 2021).

Ends that are not written are not given here.

T1 sequence (P00761 9-231): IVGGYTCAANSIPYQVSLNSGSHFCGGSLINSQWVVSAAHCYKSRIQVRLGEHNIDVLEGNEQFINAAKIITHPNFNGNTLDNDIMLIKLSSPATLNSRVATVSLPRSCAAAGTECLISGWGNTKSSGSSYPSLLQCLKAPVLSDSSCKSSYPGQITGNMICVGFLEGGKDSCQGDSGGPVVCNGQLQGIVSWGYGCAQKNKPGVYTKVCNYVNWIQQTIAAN

The first assay concerns the target T1, Trypsin (Sus scrofa, UniProt P00761).
T1 construct: purchased Promega V5280
The experiment in a line: Trypsin digestion efficiency / kinetics of signature peptide formation. The format is biochemical. The settings on record: trypsin 1:20 w/w, 37 °C, AmBic/SDC buffer with 5% ACN reconstitution; 0.5-24 h; SRM peak area; Figs. 4, S3, S4. On the procedure: HSA concentration in the pooled serum sample diluted twofold with ultrapure water was determined using BCG albumin assay kit on the 96-well plate format (cat. #MAK124-1KT, Sigma-Aldrich). The seven-point calibration series was prepared using HSA standard (5 to 50 mg/mL) in ultrapure water. The absorption spectrophotometry was measured at 620 nm wavelength. The pooled serum sample (10 µL), diluted 2000-fold using 50 mM AmBic with 5 mg/mL SDC (AmBic/SDC buffer) to HSA concentration of approx. 500 nM and transferred into a clean microcentrifuge tube. After adding SIL protein or peptide internal standard (10 µL), the sample was reduced (adding 1 µL of 200 mM DTT stock solution, 95 °C, 10 min), cooled down to ambient temperature, and cysteine residues were alkylated (adding 1 µL of 400 mM IAAstock solution, ambient temperature, 30 min in the dark). Trypsin was added to the sample in a 1:20 ratio (w/w enzyme to total protein content), and samples were incubated (37 °C, 16 h) in microcentrifuge tubes sealed with a paraffin film. The enzymatic proteolysis was quenched at different time points (0.5, 2, 4, 8, 16, and 24 h; n = 3) to optimize the incubation time. The proteolysis was quenched by adding 200 µL of 2% FA in water (pH < 3), and tryptic peptides were desalted using a mixed-mode SPE cartridge in a 96-well plate format (Oasis PRIME HLB, Waters, Milford, MA). Samples were loaded onto the SPE cartridge, washed (300 µL water with 2% FA, pH < 3), eluted (50% ACN; 2% FA in water, pH < 3), and the extract was dried in a vacuum concentrator centrifuge (Savant SPD121 P SpeedVac, Thermo Fisher). Samples were dissolved (10 µL) in 5% ACN with 0.1% FA in water before UHPLC-SRM analysis. […]
The enzymatic digestion efficiency severely affects the quantitative performance of a protein assay[10],[11]. […] Overnight trypsin digestion is routinely used for reproducible proteolytic yields as the peptide's stability and formation efficiency may vary[11]. Maximal trypsinization yields of some signature peptides are reached within two hours[10],[16], while other peptides require longer digestion time[30]. We optimized the trypsin digestion duration to ensure reproducible signature peptide yields needed for a quantitative protein assay. We studied the signature peptide formation from light HSA protein and each version of SIL-Ex peptides after 0.5, 2, 4, 8, 16, and 24 h of incubation. SRM peak areas of light and heavy signature peptides and determined HSA protein concentrations (nM) were plotted against incubation time (h), comparing the efficiency of light HSA proteolysis with SIL-Ex peptides (Figs. 4, S3 and S4). The formation of HSA signature peptides LVNE, SLHT, DDNP, YLYE, and QTAL was compared for SIL-TCT, SIL-ExC5, SIL-ExC3N3, and SIL-ExC5N5 peptides (Fig. 4). Besides, the formation of HSA signature peptides DLGE, LCTV, LVTD, TYET, and FQNA was compared for SIL-TCT and SIL-ExC5 peptides only (Fig. S4).
Take “FLQHKDDNPNLPRLVRPE [SIL signature peptide extended with five amino acids at both C- and N-termini]”: the “formation of signature peptide by trypsin digestion, rate or yield (in words)” value is recorded as “mimicking the slow digestion kinetics of light HSA protein”. Same read-out and setting: the value for DDNPNLPRSAnYG [SIL-TCT DDNPNLPR] was “rapidly formed signature peptide DDNP”. On the same count and under the same terms, the value for DDNPNLPRLVRPE was “rapidly formed signature peptide DDNP”; that for “TFLKKYLYEIARRHPYF (also: stable isotope label, residues not given here) [SIL-ExC5N5 YLYEIAR, SIL signature peptide extended with five amino acids at both C- and N-termini]” was “lower”; that for “LQHKDDNPNLPRLVR [SIL signature peptide extended with three amino acids at both C- and N-termini]” was “mimicking the slow digestion kinetics of light HSA protein”. On the same count and under the same terms, under “RQIKKQTALVELVKHKPKA [SIL signature peptide extended with five amino acids at both C- and N-termini]” stands “lower”.

Staying with this assay, now noted: trypsin 1:20 w/w, 37 °C, AmBic/SDC buffer; quenched at 0.5, 2, 4, 8, 16, 24 h, n = 3; SRM peak area; Fig. S4.
Consider DLGEENFKALVLI, for which the “time to plateau of signature peptide formed from C-terminal extended SIL peptide (in words)” value is recorded as “within the initial two hours”. On the same count and under the same terms, under LC*TVATLRETYGE stands “within the initial two hours”; under DLGEENFKSAnYG [SIL-TCT DLGEENFK], “within the initial two hours”. Same read-out and setting: the value for LC*TVATLRSAnYG [SIL-TCT LCTVATLR] was “within the initial two hours”.
